Data from patent US9204653B2, “5-fluoro pyrimidine derivatives” (DOW AGROSCIENCES LLC, priority 2008, dated 2015).
Read-outs that look alike come from different tables or passages of the source.

Tested on: Mycosphaerella graminicola; Anamorph: Septoria tritici; Bayer Code SEPTTR
Test: Leaf blotch of wheat, foliar fungicide treatment, one day protectant (1DP) or three day curative (3DC)
Assay type: in vivo, Septoria tritici on wheat plants (variety Yuma)
Conditions: Zymoseptoria tritici, rating of percent disease control
[1] = 24 h, one day protectant, read-out: SETTTR 1DP 25 ppm
[2] = 24 h, one day protectant, read-out: SEPTTR 1DP 100 ppm
[3] = 72 h, three day curative, read-out: SEPTTR 3DC 25 ppm
[4] = 72 h, three day curative, read-out: SEPTTR 3DC 100 ppm

SMILES	pest or weed control at 25 ppm (24 h, one day protectant (1DP), read-out: SETTTR 1DP 25 ppm) [%]	pest or weed control at 100 ppm (24 h, one day protectant (1DP), read-out: SEPTTR 1DP 100 ppm) [%]	pest or weed control at 25 ppm (72 h, three day curative (3DC), read-out: SEPTTR 3DC 25 ppm) [%]	pest or weed control at 100 ppm (72 h, three day curative (3DC), read-out: SEPTTR 3DC 100 ppm) [%]	pest or weed control at 25 ppm [1] [%]	pest or weed control at 100 ppm [2] [%]	pest or weed control at 25 ppm [3] [%]	pest or weed control at 100 ppm [4] [%]
Nc1nc(Oc2ccc(Cl)nc2)ncc1F [Compound 549]	26 to 50	0 to 25	0 to 25	0 to 25				
COc1cccc(COc2ncc(F)c(NC(C)=O)n2)c1 [Compound 550]					76 to 100	76 to 100	76 to 100	76 to 100
Nc1nc(Oc2ccccc2Cl)ncc1F [Compound 551]					0 to 25	26 to 50		
CCCNC(=S)Nc1nc(OCc2ccc(OC)c(F)c2)ncc1F [Compound 552]					0 to 25	76 to 100	0 to 25	76 to 100
CCOC(=O)C(=O)Nc1nc(OCc2ccc(C)cc2)ncc1F [Compound 553]					76 to 100	76 to 100	76 to 100	76 to 100
N#Cc1cccc(COc2ncc(F)c(NC(=O)Nc3ccccc3)n2)c1 [Compound 555]					0 to 25	0 to 25	0 to 25	0 to 25
COc1cccc(COc2ncc(F)c(N/N=C\c3ncc[nH]3)n2)c1 [Compound 557]					26 to 50	0 to 25	0 to 25	0 to 25
O=[N+]([O-])c1ccccc1SNc1nc(OCc2ccccc2)ncc1F [Compound 558]					76 to 100	76 to 100	26 to 50	26 to 50
CC#CCOc1ncc(F)c(NCO)n1 [Compound 559]					51 to 75	76 to 100	76 to 100	76 to 100
CC[Si](CC)(CC)Nc1nc(OCc2ccc(C)cc2)ncc1F [Compound 561]					76 to 100	76 to 100	76 to 100	76 to 100
COc1cccc(COc2ncc(F)c(NN3CCCCC3)n2)c1 [Compound 562]					0 to 25	0 to 25	0 to 25	26 to 50
Cc1cc(C)cc(COc2ncc(F)c(N)n2)c1 [Compound 564]					51 to 75	76 to 100	26 to 50	76 to 100
CCCNC(=O)Nc1nc(OCc2cccc(F)c2)ncc1F [Compound 566]					0 to 25	0 to 25	0 to 25	0 to 25
CCCNC(=S)Nc1nc(OCc2cccc(F)c2)ncc1F [Compound 568]					51 to 75	76 to 100	76 to 100	76 to 100
COc1ccccc1COc1ncc(F)c(NCO)n1 [Compound 571]					76 to 100	76 to 100	76 to 100	76 to 100
Fc1ccc(COc2ncc(F)c(NC(=S)NCc3ccccc3F)n2)cc1 [Compound 572]					26 to 50	76 to 100	26 to 50	51 to 75
COc1ccc(Oc2ncc(F)c(N)n2)cc1 [Compound 573]					26 to 50	51 to 75	0 to 25	0 to 25
Nc1nc(OCc2ccc(Cl)c(Cl)c2)ncc1F [Compound 574]					76 to 100	76 to 100	76 to 100	76 to 100
CC(Oc1ncc(F)c(N)n1)c1cccc([N+](=O)[O-])c1 (centres unmarked) [Compound 576]					26 to 50	76 to 100	26 to 50	76 to 100
Cc1csc(COc2ncc(F)c(N)n2)c1 [Compound 577]					76 to 100	76 to 100	76 to 100	76 to 100
Nc1nc(OCc2cc3cccnc3s2)ncc1F [Compound 578]					76 to 100	76 to 100	76 to 100	76 to 100
Nc1nc(OCc2cccnc2Cl)ncc1F [Compound 580]					51 to 75	76 to 100	0 to 25	51 to 75
